Series [1] in a line: Determination of pharmacokinetic parameters in mice (oral cassette dosing). The format is in vivo. To be noted: C57BL/6 mice, po 5 mg/kg; for Vd: elimination phase; for CL: total body clearance; for Cmax / Tmax / AUC(0-inf) / concentration at 10 min / concentration at 30 min / concentration at 60 min / concentration at 120 min / concentration at 240 min / concentration at 480 min: male, mouse, plasma; for AUC(0-inf): extrapolated to infinity; for concentration at 10 min / concentration at 30 min / concentration at 60 min / concentration at 120 min / concentration at 240 min / concentration at 480 min: cassette, read-out: mean plasma conc. The method, then: FIG. 1: Graphical depiction of pharmacokinetic data of compound A compared to example 3. Compound plasma concentrations (logarithmic scale) are plottet against sampling timepoints. Conditions: C57BL/6 mice, oral cassette dosing, 5 mg/Kg in 10% HPBCD/20 mM phosphate buffer.
Determination of Pharmacokinetic Parameters in Mice
Data on the rate and extent of absorption of the test compounds were generated. Compounds were applied perorally at 5 mg/kg each to male 8 weeks old C57BL/6 mice and plasma concentrations of the test items were determined by LC-MS/MS. A solution of […] of each test item was produced by diluting them in the vehicle, 10% HPBCD (hydroxypropyl-beta-cyclodextrin) in 20 mM phosphate buffer pH 7.0 (v/w). These solutions were stirred overnight at room temperature and heated to 60° C. for 10 minutes, resulting in a full solubilization. Then, an identical volume of each solution were mixed together to constitute the cassette. The application was performed by administrating the solution perorally to the mice, with an application volume of 10 ml/kg. […] Blood samples were obtained by sacrificing three animals for each time point (10, 30, 60, 120, 240, and 480 min) followed by cardiac puncture. Blood samples were treated with Li-heparin during collection procedure and stored on ice until centrifugation at 645 g (5 min, 4° C.). Plasma was harvested and kept at −20° C. until being assayed. To 50 μl of mouse plasma sample 6 μl acetonitrile containing an internal standard was added. Samples were vigorously shaken and centrifuged for 10 minutes at 6000 g and 20° C. An aliquot of the particle-free supernatant was transferred to 200 μl sampler vials and subsequently subjected to LC MS/MS for quantification.
Concentrations were plotted against sampling time for illustrating higher plasma levels of example 3 compared to plasma levels of compound A. The results are illustrated in FIG. 1.
PK calculation: The pharmacokinetic analysis of raw data was performed by applying a non-compartment model using the PK Solutions 2.0 software (Summit Research Services, Montrose, USA). All given parameters are model independent and were obtained by trapezoid area calculation and have the following meaning:
Cmax obs: maximal measured concentration;
tmax obs: time to reach the maximum measured concentration;
AUC0-∞: area under the concentration-time curve extrapolated to infinity;
Vd: volume of distribution during elimination phase;
CL: total body clearance.

Series [2] is described as follows: Microsomal stability assay. The format is in vitro ADME. To be noted: pH 7.4; mouse liver microsomes, 37° C. How it is done:
Microsomal Stability Assay
In vitro assays were performed to evaluate the metabolic stability of test items in liver microsomes originating from mouse. Preparation of working standards of test items: Working solutions were prepared for each calibration level by appropriate dilution of the corresponding stock solution, depending on each compound's solubility in acetonitrile or acetonitrile/water. Calibration standards were prepared by spiking 196 μl standard matrix with 4 μl of the corresponding working solution. The standard matrix consists of 0.15 mg/ml of microsomal protein in phosphate buffer (100 mM pH 7.4), the final standard solutions contain 2% acetonitrile. The samples and standard solutions were extracted with ethyl acetate, isolation of the compounds was performed by addition of 600 μl ethyl acetate containing the internal standard (0.1 μM) to 200 μl sample and calibration standard. After vigorously shaking (10 minutes) and centrifugation (5000 g) the aqueous phase was separated by freezing in an acetone/dry ice bath and the organic phase is evaporated to dryness using a vacuum centrifuge. Samples were reconstituted in 200 μl acetonitrile/water mix (1:1 v/v) and subsequently subjected to LC-MS/MS. The incubation solution (180 μl) consisted of 90 μl of a microsomal suspension of 0.33 mg/ml of protein in phosphate buffer 100 mM pH 7.4 and 90 μl NADP-regenerating system. The reaction was initiated by the addition of 20 μl of test compound (in 20% acetonitrile) to the preincubated microsomes/buffer mix at 37° C. 200 μl samples were removed from the incubation after 0, 5, 10, and 30 minutes and processed for ethyl acetate extraction as described above. Negative controls using boiled microsomes (boiling water bath, 25 minutes) without regenerating system were run in parallel. The amount of compound in the samples is expressed as percentage of remaining compound compared to time point zero (=100%). These percentages were plotted against the corresponding time points. Intrinsic clearance (CLint) and half-life (t1/2) estimates were determined using the rate of parent disappearance and following formula (1) and (2). (1) CLint=(−k)×V×fu. (2) t1/2=ln 2/−k. Where CLint=intrinsic clearance [μl/min/mg protein], t1/2=half life [min], k=slope from the linear regression of log [test compound] versus time plot [1/min]. V=6666.7; fu=unbound fraction in the blood. Applying this protocol gave microsomal stabilities for examples and reference compounds as listed below in Table 6: […]
In general terms: Liver microsomes are a subcellular fraction often used to study metabolism.

Series [3] can be described thus: Aqueous solubility assay, Protocol B, shake-flask method. The format is physicochemical. To be noted: 10 mM PBS buffer with 1% MeOH, kinetic from dmso stock, 10 mM PBS buffer pH 7.4, 1% MeOH, room temperature, read-out: Aqueous solubility pH 7.4 (μM) (±standard deviation), shake-flask method. How it is done: Aqueous solubility of compounds was determined by nephelometry or by shake-flask method as follows:
Protocol B, Shake-Flask Method:
Sample preparation: Sample and standard solution preparation is performed by mixing equal volumes of acetonitrile containing the internal standard (1 μM final concentration) with sample and calibration standard solutions (100 μl). After vigorously shaking (10 seconds) the samples are centrifuged (6000 g) for 5 minutes at 20° C. Aliquots of the particle-free supernatants are transferred to 200 μl sample vials and subsequently subjected to LC-MS/MS analysis. Assay procedure: Test concentration was 100 μM in 10 mM PBS buffer pH 7.4 with a final MeOH concentration of 1%. The volume of the incubation solution was 500 μl. Depending on each compound's solubility in MeOH, the stock concentration and the incubation concentration was adapted. The test solutions in quadruplicates were shaken at 300 rpm over a 20 hours period at room temperature, followed by centrifugation at 20000 g for 30 minutes to separate the solid phase. 100 μl of particle free sample are added to 100 μl acetonitrile containing the internal standard. The aqueous solubility of the compounds was determined by measuring the concentration of the PBS buffer supernatant by HPLC-MS/MS. Aqueous solubilities of examples and reference compounds are listed below in Table 3.

Each structure is given as a SMILES string. In brackets after ≈: the same amount, converted by molar mass.

Turning to `Cc1cc(OCc2c(-c3c(Cl)cccc3Cl)noc2C(C)C)cnc1Oc1ccc(C(=O)O)cc1` [Example 3, 4-(5-((3-(2,6-Dichlorophenyl)-5-isopropylisoxazol-4-yl)methoxy)-3-methylpyridin-2-yloxy)benzoic acid], in series [1], the Vd came out at 9.271 L/kg; the CL is 59 mL/min/kg; the concentration peaked (Cmax) at 904 ng/mL; the time of peak concentration (Tmax) (as a rule, the time at which the peak concentration occurs) was 10 min. Moreover, in series [1], the AUC(0-inf) (usually the area under the concentration-time curve extrapolated to infinity) was 1410 ng·h/mL, the concentration at 10 min came to 904 ng/mL, the concentration at 30 min turned out to be 867 ng/mL and the concentration at 60 min came to 291 ng/mL. Besides, in series [1], the concentration at 120 min amounted to 214 ng/mL, the concentration at 240 min amounted to 63 ng/mL and the concentration at 480 min stood at 20 ng/mL. Also, in series [2], the half-life (in general, how long it takes for the measured level to halve) is 30 min and the intrinsic clearance (microsomal CLint) (commonly a measure of how fast metabolising enzymes remove a compound, apart from limits set by blood flow) is 153 µL/min/mg. The solubility (commonly how much of the substance goes into solution per volume) at 20 h in series [3] was found to be 188 µM (≈ 96.5 µg/mL).
On to `CC(C)c1onc(-c2c(Cl)cccc2Cl)c1COc1ccc(Oc2ccc(C(=O)O)cc2)cc1` [Compound A, reference compound], for which, in series [1], the Vd worked out at 110.078 L/kg, the CL is 343 mL/min/kg, the Cmax (usually the highest concentration seen after dosing) is 120 ng/mL and the time to peak (Tmax) was 10 min. Moreover, in series [1], the area under the curve AUC(0-inf) was 242 ng·h/mL, the concentration at 10 min was determined as 120 ng/mL, the concentration at 30 min was determined as 102 ng/mL and the concentration at 60 min came out at 43 ng/mL. Also, in series [1], the concentration at 120 min turned out to be 24 ng/mL, the concentration at 240 min is 15 ng/mL and the concentration at 480 min stood at 8 ng/mL. In series [2], this compound came in with a half-life of 22 min and a microsomal CLint of 207 µL/min/mg. Moreover, the solubility at 20 h in series [3] was determined as 72.4 µM (≈ 36.1 µg/mL).

The record behind these values is patent publication US8193192B2, “Heterocyclic FXR binding compounds” (Phenex Pharmaceuticals AG, priority 2006, dated 2012).
